Reference: US7262177B2, “Conjugates of glycosylated/galactosylated peptide, bifunctional linker, and nucleotidic monomers/polymers, and related compositions and methods of use” (priority 2000, dated 2007)
Where two headings read alike, the source gives them in different places. One block for each molecule: values may come before it.

Tests used:
[1] = molecular target: T1, thymidylate synthase (TS) (Homo sapiens, UniProt P04818); assay: Thymidylate synthase activity in treated Hep G2 cells; type: cell-based; conditions: 1 μM, 96 hrs post treatment
T1 construct: endogenous in cells; host or cells: Hep G2
Experimental: Briefly, 10^5 Hep G2 or TSU cells were grown in culture for 48 h and then the medium was made to a concentration of 1 μM with either po 1-mer or unconjugated 5FdU. At regular intervals (24 hrs, 48 hrs, 72 hrs and 96 hrs) after treatment, the medium was removed and replaced with medium containing deoxyuridine/[^3H]-deoxyuridine mixtures. Cells were incubated at 37° C. for 30 min. Cell medium was then removed and precipitated with charcoal. The supernatant was then counted to determine the presence of [^3H]-H2O. The measurable release of [^3H] as [^3H]-H2O from deoxyuridine, 5′-monophosphate (dUMP) substrate reflects thymidylate synthase activity.

Hep G2 cells = assay: Cellular uptake of 5FU 1-mer conjugates by Hep G2 cells; type: cell-based, human; conditions: 1 μM, 480 min
Experimental: Hep G2 cells were passaged into 2 cm^2 wells and grown in RPMI 1640 medium, which was supplemented with L-glutamine (10-040, CV) to a density of 0.3×10^6 to 0.4×10^6 cells per well (48-well cluster plate, Costar, Cambridge, Mass.). […] Then, an aliquot of the medium was saved for scintillation counting and the remainder of the medium aspirated from the well. The cells were washed with D-PBS (2×0.5 ml), treated with 0.25% trypsin (37° C., 2 minutes; trypsin prepared in HBSS with 1.0 mM EDTA) and suspended in fresh growth medium containing 10% FCS. The suspended cells were layered over silicon oil (0.5 ml) in a 1.7 ml conical microcentrifuge tube and pelleted by centrifugation at 14,000 rpm (12,000 g) for 30 seconds. The supernatant was carefully decanted and the cell pellet was lysed with 100 μl of a solution containing 0.5% NP 40, 100 mM sodium chloride, 14 mM Tris/HCl and 30% acetonitrile. The amount of radioactivity, and by inference the amount of neoglycoconjugate or oligomer associated with the cell lysate, was determined by scintillation counting.

[2] = Stability of 1-mer conjugates in RPMI 1640+10% FCS (PAGE); type: in vitro ADME; conditions: up to 8 hrs, PAGE analysis
Experimental: Initially, the stability of the two neoglycoconjugates was assessed in RPMI 1640+10% FCS. […] In terms of cellular uptake, the po-linked conjugate at a dose of 1 μM was taken up rapidly in a progressive manner by Hep G2 cells in vitro to the extent of 24.75 pmoles/10^6 cells at 480 min. The rate of cellular uptake was next analyzed with respect to the administered dose of the conjugate. […] This amount doubled within the next 30 min and peaked at 25 pmoles/million cells at 480 min. […] While the administration of 4 μM conjugate led to a linear increase of conjugate uptake with respect to time, the rate at which cellular uptake occurred upon the administration of 8 μM conjugate rose sharply at 120 min.

[3] = molecular target: T2, thymidylate synthetase (TS) (Mus musculus, UniProt P07607); assay: Thymidylate synthetase activity in mouse liver extract ([5-3H]-dUMP tritium release); type: biochemical, CD-1 mouse
T2 construct: from tissue; host or cells: CD-1 mouse liver, supernatant of homogenate
Experimental: A CD-1 mouse (Charles River, Wilmington, Mass.) was sacrificed and the liver removed. Approximately one gram of the tissue was subsequently washed in DPBS (Mediatech, Herndon, Va.) and placed in 3 volumes of buffer H. The tissue was then homogenized with a Dounce homogenizer and subsequently sonicated by three 15-second bursts followed by 1 min on ice. The tissue extract was then centrifuged for 10 min at 4,000 g and the resultant supernatant was spun for 20 min at 7,000 g. Three equal aliquots of this supernatant were then added to 0.9 μCi aliquots of 2′-Deoxyuridine 5′-monophosphate, diammonium salt, [5-^3H]. At this point, 5-Fluoro-2′-deoxyuridine 5′-monothiophosphate was added to one aliquot, 5-Fluoro-2′-deoxyuridine 5′-monophosphate was added to a second aliquot, and one aliquot was left untreated. The three samples were incubated at 37° C. for 30 min and precipitated with charcoal. The resultant supernatant was centrifuged at 1,600 g for 10 min. Aliquots of each sample were then counted using a Beckman scintillation counter. Percent (%) inhibition is expressed as follows: […]
These assays determined the ability of either 10 nM FdUMP (phosphodiester substrate) or FdUMPS (phosphorothioate substrate) to inhibit thymidylate synthetase (TS) activity. The objective of this assay was to determine the ability of TS to convert [5-^3H]-dUMP to ^3H-H2O.
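Throughout, for % injected dose in BLADDER: male CD-1 mice given radiolabeled test agent intravenously, organs removed at each time point and dissolved, radioactivity per organ measured by scintillation counting with efficiency correction.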
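Throughout, for % injected dose in BLOOD: male CD-1 mice given radiolabeled test agent intravenously, organs removed at each time point and dissolved, radioactivity per organ measured by scintillation counting with efficiency correction.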
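Throughout, for % injected dose in HEART: male CD-1 mice given radiolabeled test agent intravenously, organs removed at each time point and dissolved, radioactivity per organ measured by scintillation counting with efficiency correction.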
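Throughout, for % injected dose in KIDNEY: male CD-1 mice given radiolabeled test agent intravenously, organs removed at each time point and dissolved, radioactivity per organ measured by scintillation counting with efficiency correction.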

T2 sequence (P07607 whole entry): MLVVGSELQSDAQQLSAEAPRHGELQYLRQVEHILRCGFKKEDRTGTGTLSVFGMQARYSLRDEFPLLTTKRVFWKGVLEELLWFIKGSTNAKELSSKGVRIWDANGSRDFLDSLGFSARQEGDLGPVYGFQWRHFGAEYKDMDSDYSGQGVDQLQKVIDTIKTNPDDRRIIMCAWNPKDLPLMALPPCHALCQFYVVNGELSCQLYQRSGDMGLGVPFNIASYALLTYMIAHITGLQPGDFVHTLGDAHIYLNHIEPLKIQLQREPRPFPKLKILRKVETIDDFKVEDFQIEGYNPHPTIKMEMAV
T1 sequence (P04818 2-313 limits assumed): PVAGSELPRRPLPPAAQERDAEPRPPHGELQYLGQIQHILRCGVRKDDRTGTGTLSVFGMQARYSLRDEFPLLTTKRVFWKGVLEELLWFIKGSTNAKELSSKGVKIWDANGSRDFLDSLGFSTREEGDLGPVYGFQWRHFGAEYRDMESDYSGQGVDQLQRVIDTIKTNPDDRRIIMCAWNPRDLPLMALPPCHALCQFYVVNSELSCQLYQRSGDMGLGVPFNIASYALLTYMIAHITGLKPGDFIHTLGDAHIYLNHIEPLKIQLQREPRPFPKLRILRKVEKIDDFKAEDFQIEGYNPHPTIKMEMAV

reduction of TS activity [1]: approximately 20%
% injected dose in BLADDER (15 MIN after tail vein i.v.): 0.91 ± 0.07%
% injected dose in BLOOD (15 MIN after tail vein i.v.): 0.03 ± 0.02%
% injected dose in HEART (15 MIN after tail vein i.v.): 0.21 ± 0.13%
% injected dose in KIDNEY (15 MIN after tail vein i.v.): 0.42 ± 0.28%
% injected dose in LG INT (15 MIN after tail vein i.v.): 1.09 ± 0.25%
% injected dose in LIVER (15 MIN after tail vein i.v.): 9.56 ± 3.83%
% injected dose in LUNGS (15 MIN after tail vein i.v.): 0.17 ± 0.07%
% injected dose in MUSCLE (15 MIN after tail vein i.v.): 9.29 ± 4.9%
% injected dose in SM INT (15 MIN after tail vein i.v.): 0.7 ± 0.04%
% injected dose in SPLEEN (15 MIN after tail vein i.v.): 0.11 ± 0.044%
% injected dose in LIVER (15 MIN after tail vein i.v., listed as unconjugated 5FdU): less than 10%
% injected dose in BLADDER (30 MIN after tail vein i.v.): 2.3 ± 1.58%
% injected dose in BLOOD (30 MIN after tail vein i.v.): .008 ± .0025%
% injected dose in HEART (30 MIN after tail vein i.v.): 0.03 ± .004%
% injected dose in KIDNEY (30 MIN after tail vein i.v.): 0.38 ± 0.3%
% injected dose in LG INT (30 MIN after tail vein i.v.): 0.37 ± 0.19%
% injected dose in LIVER (30 MIN after tail vein i.v.): 8.8 ± 1.23%
% injected dose in LUNGS (30 MIN after tail vein i.v.): 0.05 ± 0.006%
% injected dose in MUSCLE (30 MIN after tail vein i.v.): 3.43 ± 1.06%
% injected dose in SM INT (30 MIN after tail vein i.v.): 0.61 ± 0.36%
% injected dose in SPLEEN (30 MIN after tail vein i.v.): 0.19 ± 0.26%
% injected dose in BLADDER (60 MIN after tail vein i.v.): 2.99 ± 1.01%
% injected dose in BLOOD (60 MIN after tail vein i.v.): .007 ± .0023%
% injected dose in HEART (60 MIN after tail vein i.v.): 0.28 ± 0.11%
% injected dose in KIDNEY (60 MIN after tail vein i.v.): 0.84 ± 0.31%
% injected dose in LG INT (60 MIN after tail vein i.v.): 1.04 ± 0.2%
% injected dose in LIVER (60 MIN after tail vein i.v.): 4.35 ± 1.35%
% injected dose in LUNGS (60 MIN after tail vein i.v.): 0.98 ± 0.3%
% injected dose in MUSCLE (60 MIN after tail vein i.v.): 22.84%
% injected dose in SM INT (60 MIN after tail vein i.v.): 3.57 ± 1.3%
% injected dose in SPLEEN (60 MIN after tail vein i.v.): 0.57 ± 0.18%
% injected dose in BLADDER (240 MIN after tail vein i.v.): 0.010 ± .015%
% injected dose in BLOOD (240 MIN after tail vein i.v.): 0.56 ± 0.28%
% injected dose in HEART (240 MIN after tail vein i.v.): 0.32 ± 0.10%
% injected dose in KIDNEY (240 MIN after tail vein i.v.): 0.44 ± 0.12%
% injected dose in LG INT (240 MIN after tail vein i.v.): 1.61 ± 0.59%
% injected dose in LIVER (240 MIN after tail vein i.v.): 3.97 ± 0.37%
% injected dose in LUNGS (240 MIN after tail vein i.v.): 1.03 ± 0.39%
% injected dose in MUSCLE (240 MIN after tail vein i.v.): 46.56%
% injected dose in SM INT (240 MIN after tail vein i.v.): 4.19 ± 1.18%
% injected dose in SPLEEN (240 MIN after tail vein i.v.): 0.38 ± 0.04%
% injected dose in BLADDER (480 MIN after tail vein i.v.): .001 ± .0006%
% injected dose in BLOOD (480 MIN after tail vein i.v.): 0.23 ± 0.14%
% injected dose in HEART (480 MIN after tail vein i.v.): 0.06 ± .02%
% injected dose in KIDNEY (480 MIN after tail vein i.v.): 0.13 ± .044%
% injected dose in LG INT (480 MIN after tail vein i.v.): 0.35 ± 0.09%
% injected dose in LIVER (480 MIN after tail vein i.v.): 1.25 ± 0.33%
% injected dose in LUNGS (480 MIN after tail vein i.v.): 0.08 ± 0.04%
% injected dose in MUSCLE (480 MIN after tail vein i.v.): 7.9 ± 1.64%
% injected dose in SM INT (480 MIN after tail vein i.v.): 1.37 ± 0.7%
% injected dose in SPLEEN (480 MIN after tail vein i.v.): 0.09 ± 0.05%
SMILES: O=c1[nH]c(=O)n([C@H]2C[C@H](O)[C@@H](CO)O2)cc1F [5FdU, 5-fluoro-2′-deoxyuridine]

SMILES: CC(=O)N[C@H]1[C@H](OCCCCCCNC(=O)CC[C@H](NC(=O)CC[C@H](NC(=O)[C@H](Cc2ccc(O)cc2)NC(=O)C2CCC(CN3C(=O)CC(SCCCCCCOP(O)(=S)OC[C@H]4O[C@@H](n5cc(F)c(=O)[nH]c5=O)C[C@@H]4O)C3=O)CC2)C(=O)NCCCCCCO[C@@H]2O[C@H](CO)[C@H](O)[C@H](O)[C@H]2NC(C)=O)C(=O)NCCCCCCO[C@@H]2O[C@H](CO)[C@H](O)[C@H](O)[C@H]2NC(C)=O)O[C@H](CO)[C@H](O)[C@@H]1O (some centres unmarked) [ps 1-mer, YEE(ahGalNAc)3-SMCC-psFU]
cellular uptake (Hep G2 cells): 24.98 pmoles/10^6 cells
stability in media containing 10% FCS [2]: stable

SMILES: O=c1[nH]c(=O)n([C@H]2C[C@H](O)[C@@H](COP(O)(O)=S)O2)cc1F [FdUMPS, 5-Fluoro-2′-deoxyuridine 5′-monothiophosphate]
inhibition at 0.01 µM ([3]; read-out: Percent Inhibition of Thymidylate Synthetase Activity, 10 nM inhibitor, 1 μM dUMP): 27%
inhibition at 0.01 µM ([3]; read-out: Percent Inhibition of Thymidylate Synthetase Activity, 10 nM inhibitor, 10 μM dUMP): 13%

biological activity relative to FdUMPS ([3]; 10 nM): approximately twice
inhibition at 0.01 µM ([3]; 10 nM inhibitor, 1 μM dUMP, read-out: Percent Inhibition of Thymidylate Synthetase Activity): 48%
inhibition at 0.01 µM ([3]; 10 nM inhibitor, 10 μM dUMP, read-out: Percent Inhibition of Thymidylate Synthetase Activity): 28%
SMILES: O=c1[nH]c(=O)n([C@H]2C[C@H](O)[C@@H](COP(=O)(O)O)O2)cc1F [FdUMP, 5-Fluoro-2′-deoxyuridine 5′-monophosphate]
